Consider 12 compounds from PubChem BioAssay (NCI).

Values joined by “and” are separate entries in the source; they are usually repeats but may differ in a detail not shown here. Equal values may be shown once.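 Where inhibition never reached the appropriate level, the endpoint shown equals the highest concentration tested. Otherwise, values were interpolated linearly from a five-concentration, 48-hour dose response in 96-well plates. GI50 marks 50% less growth. TGI is the concentration that stops growth completely.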 A value given as a limit tells only on which side of the number the result lay.

Some test systems named below: 786-0 renal; ACHN renal; CCRF-CEM leukemia; HL-60(TB) leukemia; HOP-62 NSCLC; HOP-92 NSCLC; OVCAR-4 ovarian; OVCAR-5 ovarian; SNB-75 CNS; SR leukemia.
Holding throughout (test): NCI tumour cell line growth inhibition, 48 h

Consider `O=C1Nc2ccc(Cl)cc2/C1=C\c1c(-c2ccc(F)cc2)nc2ccccn12`, for which the GI50 in the test on 786-0 renal is 2.18 µM; with ACHN renal, 3.25 µM; with CCRF-CEM leukemia, 2.31 µM; in the test with HL-60(TB) leukemia it was 1.88 µM; with HOP-62 NSCLC it was 2.35 µM; in the test with HOP-92 NSCLC it was 1.86 µM. For the same compound, the GI50 was 2.3 µM with OVCAR-4 ovarian, 2.21 µM with OVCAR-5 ovarian, 2.08 µM in the test on SNB-75 CNS and 2.92 µM in the test on SR leukemia. Moreover, the TGI in the test on 786-0 renal worked out at 5.2 µM; in the test with ACHN renal it was 11.4 µM; with CCRF-CEM leukemia it was 7.24 µM; in the test on HL-60(TB) leukemia, 4.48 µM; in the test with HOP-62 NSCLC, 6.32 µM; in the test with HOP-92 NSCLC, 7.1 µM. For the same compound, the TGI is 7.23 µM in the test with OVCAR-4 ovarian, 6.72 µM with OVCAR-5 ovarian, 7.97 µM in the test with SNB-75 CNS and above 100 µM in the test on SR leukemia.
Consider `C=C1C(=O)O[C@H]2[C@H]1CC/C(COC(=O)OCCCCCOC(=O)OC/C1=C/CC[C@@]3(C)O[C@H]3[C@H]3OC(=O)C(=C)[C@@H]3CC1)=C\CC[C@@]1(C)O[C@@H]21`, for which the GI50 was 0.266 µM with 786-0 renal; 0.176 µM in the test on ACHN renal; 0.321 µM with CCRF-CEM leukemia; 0.281 µM in the test on HL-60(TB) leukemia; 1.76 µM in the test with HOP-62 NSCLC; 1.26 µM in the test with HOP-92 NSCLC. Also, the GI50 is 0.683 µM in the test with OVCAR-4 ovarian, 0.581 µM with OVCAR-5 ovarian, 1.11 µM in the test on SNB-75 CNS and 0.208 µM with SR leukemia. In addition, the TGI in the test with 786-0 renal was 0.93 µM; in the test on ACHN renal it was 0.341 µM; with CCRF-CEM leukemia, 1.14 µM; in the test on HL-60(TB) leukemia, 0.793 µM; in the test on HOP-62 NSCLC it was 4.02 µM; in the test on HOP-92 NSCLC, 2.94 µM. Also, the TGI with OVCAR-4 ovarian came out at 2.15 µM; in the test on OVCAR-5 ovarian it was 2.08 µM; in the test with SNB-75 CNS it was 2.5 µM; with SR leukemia, 0.744 µM.
Turning to `COc1ccc(OC)c(/C=C/[N+](=O)[O-])c1`, the TGI was 4.09 µM and 3.21 µM in the test on 786-0 renal; 4.49 µM and 3.28 µM in the test on ACHN renal; 14.6 µM and 5.38 µM in the test with CCRF-CEM leukemia; 4.5 µM and 2.79 µM in the test on HL-60(TB) leukemia; 8.27 µM and 9.56 µM in the test on HOP-62 NSCLC; 7.23 µM and 10.4 µM with HOP-92 NSCLC. Also, the TGI in the test on OVCAR-4 ovarian was 8.89 µM and 8.72 µM; in the test on OVCAR-5 ovarian, 4.45 µM and 9.01 µM; in the test on SNB-75 CNS it was 12.9 µM and 11.8 µM; in the test with SR leukemia it was 1.85 µM and 3.92 µM. Also, the GI50 in the test with CCRF-CEM leukemia was 1.18 µM; with HL-60(TB) leukemia, 1.66 µM and 0.651 µM; in the test on HOP-92 NSCLC it was 2.04 µM; in the test on OVCAR-5 ovarian, 2.11 µM and 4.32 µM; in the test with SNB-75 CNS it was 5.3 µM; in the test with SR leukemia it was 0.467 µM and 0.865 µM.
For the compound `O=C(c1ccccc1)c1ccc(-c2ccc(O)cc2)cc1`, the GI50 is 17.8 µM in the test with 786-0 renal; 6.88 µM in the test on ACHN renal; 0.533 µM in the test with CCRF-CEM leukemia; 1.89 µM with HL-60(TB) leukemia; 7.08 µM in the test on HOP-62 NSCLC; 5.63 µM in the test on HOP-92 NSCLC. Besides, the GI50 in the test with OVCAR-4 ovarian is 5.87 µM; with OVCAR-5 ovarian it was 31 µM; in the test with SNB-75 CNS, 4.22 µM; in the test on SR leukemia it was 3 µM. Further, the TGI in the test on 786-0 renal was above 66.8 µM; with ACHN renal it was 36.3 µM; in the test on CCRF-CEM leukemia it was above 23.9 µM; in the test on HL-60(TB) leukemia, 11.1 µM; with HOP-62 NSCLC, 25.9 µM; in the test on HOP-92 NSCLC, 30.3 µM. Further, the TGI was above 100 µM in the test on OVCAR-4 ovarian, above 100 µM in the test with OVCAR-5 ovarian, 34.5 µM in the test with SNB-75 CNS and 18.1 µM in the test on SR leukemia.
Regarding `Cn1ncc2c(Nc3ccc(Br)cc3)nc(Nc3ccc(Br)cc3)nc21`, the GI50 was 2.4 µM with 786-0 renal; 3.74 µM in the test with ACHN renal; 3.23 µM in the test with CCRF-CEM leukemia; 1.44 µM in the test with HL-60(TB) leukemia; 4.22 µM in the test with HOP-62 NSCLC; 1.66 µM in the test on HOP-92 NSCLC. Moreover, the GI50 in the test on OVCAR-4 ovarian is 3.51 µM; in the test on OVCAR-5 ovarian it was 11.3 µM; in the test with SNB-75 CNS it was 2.23 µM; in the test on SR leukemia it was 1.69 µM. The TGI in the test on 786-0 renal came to 5.32 µM; with ACHN renal, 13 µM; with CCRF-CEM leukemia, 22 µM; with HL-60(TB) leukemia, 5.85 µM; with HOP-62 NSCLC it was 15.4 µM; in the test on HOP-92 NSCLC it was 5.23 µM. Also, the TGI in the test with OVCAR-4 ovarian turned out to be 16.1 µM; in the test on OVCAR-5 ovarian it was 24.1 µM; with SNB-75 CNS, 12.5 µM; with SR leukemia, 5.21 µM.
Turning to `CN(C(=O)c1ccc(F)cc1C(F)(F)F)C1CCN(c2nnc(-c3ccnn3C)c3ccccc23)CC1`, the GI50 was above 100 µM with 786-0 renal; 51.7 µM in the test with ACHN renal; 31.6 µM in the test with CCRF-CEM leukemia; 27.3 µM in the test with HL-60(TB) leukemia; 65.1 µM in the test on HOP-62 NSCLC; 16.5 µM in the test with HOP-92 NSCLC. Besides, the GI50 was 20.9 µM in the test with OVCAR-4 ovarian, above 100 µM in the test on OVCAR-5 ovarian, 14.5 µM in the test on SNB-75 CNS and 50.9 µM in the test on SR leukemia. Also, the TGI in the test with 786-0 renal is above 100 µM; with ACHN renal it was above 100 µM; with CCRF-CEM leukemia it was above 100 µM; with HL-60(TB) leukemia, above 84.1 µM; in the test on HOP-62 NSCLC, above 100 µM; in the test on HOP-92 NSCLC, above 92.9 µM. Further, the TGI with OVCAR-4 ovarian, in the test on OVCAR-5 ovarian, in the test with SNB-75 CNS and in the test with SR leukemia was above 100 µM throughout.
Take `COC1=CC(c2ccc[nH]2)=N/C1=C\c1[nH]c(C)c(C(=O)CCC(=O)Oc2ccc3c(c2)CCC2C3CC[C@]3(C)C(=O)CC[C@@H]23)c1C` (stereo partly specified): the GI50 with 786-0 renal is 6 µM; in the test with ACHN renal it was 5.82 µM; in the test with CCRF-CEM leukemia it was 0.527 µM; with HL-60(TB) leukemia, 50.2 µM; with HOP-62 NSCLC it was 18.2 µM; in the test on HOP-92 NSCLC, 2.09 µM. Besides, the GI50 in the test with OVCAR-4 ovarian is 13.1 µM; in the test with OVCAR-5 ovarian it was 7.88 µM; in the test on SNB-75 CNS it was above 42.7 µM; with SR leukemia, 0.634 µM. The TGI in the test on 786-0 renal was 39.1 µM; in the test with ACHN renal it was above 100 µM; with CCRF-CEM leukemia, above 100 µM; with HL-60(TB) leukemia, above 100 µM; in the test on HOP-62 NSCLC, 66 µM; with HOP-92 NSCLC, 16.5 µM. The TGI in the test on OVCAR-4 ovarian is above 100 µM; in the test on OVCAR-5 ovarian, above 81.6 µM; in the test on SNB-75 CNS, above 96.6 µM; in the test with SR leukemia it was above 100 µM.
In the case of `CO/N=C(\c1ccccc1)c1cnn(-c2ccccc2)c1N`, the GI50 was above 25 µM in the test on 786-0 renal; above 25 µM with ACHN renal; above 25 µM with CCRF-CEM leukemia; above 25 µM in the test with HL-60(TB) leukemia; above 25 µM in the test with HOP-62 NSCLC; above 12.4 µM with HOP-92 NSCLC. The GI50 with OVCAR-4 ovarian, with OVCAR-5 ovarian, in the test with SNB-75 CNS and in the test on SR leukemia was above 25 µM each time. Also, the TGI in the test on 786-0 renal, in the test with ACHN renal, in the test with CCRF-CEM leukemia, in the test on HL-60(TB) leukemia, in the test with HOP-62 NSCLC and in the test on HOP-92 NSCLC was above 25 µM in each case. The TGI in the test on OVCAR-4 ovarian, in the test on OVCAR-5 ovarian, in the test with SNB-75 CNS and in the test on SR leukemia was above 25 µM throughout.
For the compound `CC1(C)CCC(S(=O)(=O)c2ccc3c(c2)/C(=N\O)c2cc(S(=O)(=O)N4CCC(O)(c5cccc(C(F)(F)F)c5)CC4)ccc2-3)CC1`, the GI50 in the test on 786-0 renal is 0.145 µM; in the test with ACHN renal, 0.0431 µM; with CCRF-CEM leukemia, 0.0291 µM; in the test with HL-60(TB) leukemia, 0.0203 µM; with HOP-62 NSCLC, 0.0208 µM; with HOP-92 NSCLC, 0.517 µM. Also, the GI50 in the test on OVCAR-4 ovarian is 0.0251 µM; in the test with OVCAR-5 ovarian, 0.0317 µM; with SNB-75 CNS it was 0.0158 µM; in the test on SR leukemia it was 0.0174 µM. In addition, the TGI in the test on 786-0 renal was 0.36 µM; with ACHN renal, 1.41 µM; in the test on CCRF-CEM leukemia, 0.0906 µM; with HL-60(TB) leukemia, 0.0681 µM; in the test on HOP-62 NSCLC, 0.0489 µM; with HOP-92 NSCLC, 3.48 µM. The TGI was found to be 0.0744 µM in the test with OVCAR-4 ovarian, 0.148 µM with OVCAR-5 ovarian, 0.0349 µM in the test on SNB-75 CNS and 0.0443 µM with SR leukemia.
For `CCN(CC)c1ccc(NC(C(=O)c2ccccc2)c2ccccc2)cc1` (stereo unspecified), the GI50 is 1.83 µM in the test on 786-0 renal; 1.9 µM in the test with ACHN renal; 2.29 µM with CCRF-CEM leukemia; 3.24 µM in the test with HL-60(TB) leukemia; 4.31 µM in the test with HOP-62 NSCLC; 2.22 µM in the test with HOP-92 NSCLC. In addition, the GI50 was 4.78 µM in the test with OVCAR-4 ovarian, 2.24 µM in the test with OVCAR-5 ovarian, 2.24 µM in the test on SNB-75 CNS and 0.594 µM in the test with SR leukemia. Also, the TGI with 786-0 renal worked out at 3.59 µM; in the test with ACHN renal, 3.82 µM; in the test on CCRF-CEM leukemia, 13.5 µM; with HL-60(TB) leukemia, 20.9 µM; with HOP-62 NSCLC, 16.5 µM; with HOP-92 NSCLC, 8.21 µM. The TGI is 46.2 µM in the test on OVCAR-4 ovarian, 5.26 µM in the test with OVCAR-5 ovarian, 10.7 µM in the test with SNB-75 CNS and above 100 µM with SR leukemia.
Consider `O=[N+]([O-])c1ccccc1S(=O)c1ccccc1` (stereo unspecified), for which the TGI in the test on 786-0 renal, with ACHN renal, with CCRF-CEM leukemia, in the test on HL-60(TB) leukemia, with HOP-62 NSCLC and in the test on HOP-92 NSCLC was above 100 µM throughout. For the same compound, the TGI in the test with OVCAR-4 ovarian is above 100 µM; in the test with OVCAR-5 ovarian it was above 100 µM; in the test on SNB-75 CNS it was 58.7 µM; with SR leukemia, above 100 µM.
Take `O=C(NO)c1ccc(C(=O)NO)cc1`: the TGI with 786-0 renal was above 100 µM; in the test with ACHN renal, above 100 µM; in the test with CCRF-CEM leukemia, 83.1 µM; in the test with HL-60(TB) leukemia, above 100 µM; in the test on HOP-62 NSCLC it was above 100 µM; in the test with HOP-92 NSCLC, above 100 µM. Besides, the TGI with OVCAR-4 ovarian, in the test with OVCAR-5 ovarian, with SNB-75 CNS and in the test with SR leukemia was above 100 µM each time.
